Assay results from patent US12723024B2 (priority 2021, dated 2026).
In brackets after ≈: the same amount, converted by molar mass. Where two headings read alike, the source gives them in different places.

Columns and labels:
[1] = type: physicochemical; settings: for chemical purity (%): solid state
[2] = Dynamic vapor sorption (DVS) test at 25° C.; type: physicochemical; settings: for 1st Desorp. (%) / 2nd Sorp. (%) / 1st Sorp. (%) / 2nd Desorp. (%): cycle 40-95-0-95-40% RH; for Hygroscopicity: grade in words; for Desorp. (%) / Sorp. (%): cycle 40-0-95-0-40% RH
[3] = Salt screening (slurry crystallization); type: physicochemical; design: key to Salt screening result: (+) shows that a crystalline salt was formed; (−) physical mixtures; settings: for Salt screening result: slurry 50° C. then 25° C.; for Polymorph obtained in salt screening: XRPD
Procedure: About 45 mg was added to a suitable solvent and different equivalents of acids were added under stirring at 50° C. for about 2 hours and then at 25° C. for at least 32 hours. Ethanol, acetone, and ACN were used as screening solvents. When no precipitation was obtained or only a few solids were obtained, the solutions were placed at 5° C. for crystallization.
(§1) Obtained suspensions were taken out and centrifuged. Solids obtained was analysed by XRPD. Salts with high or medium crystallinity were further characterized (see Table 5).

[4] = Solubility in water at 25° C.; settings: thermodynamic from solid
[5] = Thermogravimetric analysis (TGA) weight loss; type: physicochemical; settings: large scale batch, at the temperature printed in the same cell (100-170° C.)
[6] = Thermogravimetric analysis (TGA) weight loss; type: physicochemical; settings: salt screening sample, at the temperature given (80-200° C.)
Excerpt: (§2) According to the salt screening results (see Table 4), totally 19 potential salt hits were identified. All the potential salt hits were further investigated by Differential Scanning Calorimetry (DSC), Thermogravimetric analysis (TGA), H-NMR, Ion chromatography (IC), Karl Fischer titration (KF), and Polarized Light Microscopy (PLM) to confirm their identity and evaluate their physicochemical properties as shown in Table 5 below.

[7] = Solubility in pH buffers and bio-relevant media at 37° C.; type: physicochemical; settings: thermodynamic from solid
[8] = type: physicochemical
Excerpt: as §2

Crystallinity by XRPD = type: physicochemical
Procedure: as §1, §2

[9] = Hygroscopicity (water uptake) of salt hits; type: physicochemical; settings: salt screening sample
Excerpt: as §2

[10] = wetted with water or ethanol, ground, dried 10 min; XRPD
Procedure: Wet samples were ground gently with a mortar and pestle. Post granulation samples were dried under ambient condition for 10 min. Potential change of polymorph form and degree of crystallinity were evaluated by XRPD.

[11] = ground manually with mortar and pestle for 5 min; XRPD
Procedure: Potential change of polymorph form and degree of crystallinity were evaluated by XRPD.

[12] = aqueous buffer, pH 4.5 (50 mM) acetate buffer, tested up to 2 mg/mL
[13] = aqueous buffer, pH 6.8 (50 mM) phosphate buffer, tested up to 2 mg/mL
[14] = pH 1.2 HCl buffer (0.1N HCl), simulated gastric fluid, pH 1.2 (0.1N HCl), tested up to 2 mg/mL
[15] = simulated gastric fluid, SGF, pH 2.0, tested up to 2 mg/mL
[16] = FaSSIF-V1, pH 6.5, tested up to 2 mg/mL
[17] = FeSSIF-V1, pH 5.0, tested up to 2 mg/mL
[18] = large scale batch, listed as free base (polymorph B)

COc1cc(C(F)(F)F)c(OC)cc1[C@@H]1CCCNC1 [Free base (Polymorph B), (S)-3-(2,5-dimethoxy-4-(trifluoromethyl)phenyl)piperidine]
Initial chemical purity (%) ([1]; before storage): 98.7%
chemical purity (%) ([1]; 25° C./92% RH, open container, 1 week): 98.7%
chemical purity (%) ([1]; 40° C./75% RH, open container, 1 week): 98.8%
chemical purity (%) ([1]; 60° C., tight container, 1 week): 98.5%
Bulk stability ([1]; stressed conditions: 25° C./92% RH, 40° C./75% RH, 60° C., 1 week): chemically stable in these conditions, but physically unstable at 60 °C
1st Desorp. (%) ([2]; 0% RH, 25° C.): 0.02%
2nd Sorp. (%) ([2]; 0% RH, 25° C.): 0.02%
1st Desorp. (%) ([2]; 10% RH, 25° C.): 0.20%
2nd Sorp. (%) ([2]; 10% RH, 25° C.): 0.002%
1st Desorp. (%) ([2]; 20% RH, 25° C.): 6.07%
2nd Sorp. (%) ([2]; 20% RH, 25° C.): 0.007%
1st Desorp. (%) ([2]; 30% RH, 25° C.): 6.29%
2nd Sorp. (%) ([2]; 30% RH, 25° C.): 0.02%
1st Desorp. (%) ([2]; 40% RH, 25° C.): 8.54%
1st Sorp. (%) ([2]; 40% RH, 25° C.): 8.34%
2nd Desorp. (%) ([2]; 40% RH, 25° C.): 8.23%
2nd Sorp. (%) ([2]; 40% RH, 25° C.): 0.02%
1st Desorp. (%) ([2]; 50% RH, 25° C.): 8.90%
1st Sorp. (%) ([2]; 50% RH, 25° C.): 8.83%
2nd Desorp. (%) ([2]; 50% RH, 25° C.): 8.76%
2nd Sorp. (%) ([2]; 50% RH, 25° C.): 0.04%
1st Desorp. (%) ([2]; 60% RH, 25° C.): 8.90%
1st Sorp. (%) ([2]; 60% RH, 25° C.): 8.90%
2nd Desorp. (%) ([2]; 60% RH, 25° C.): 8.79%
2nd Sorp. (%) ([2]; 60% RH, 25° C.): 0.06%
1st Desorp. (%) ([2]; 70% RH, 25° C.): 8.97%
1st Sorp. (%) ([2]; 70% RH, 25° C.): 8.96%
2nd Desorp. (%) ([2]; 70% RH, 25° C.): 8.87%
2nd Sorp. (%) ([2]; 70% RH, 25° C.): 0.12%
1st Desorp. (%) ([2]; 80% RH, 25° C.): 9.03%
1st Sorp. (%) ([2]; 80% RH, 25° C.): 9.02%
2nd Desorp. (%) ([2]; 80% RH, 25° C.): 8.95%
2nd Sorp. (%) ([2]; 80% RH, 25° C.): 3.80%
1st Desorp. (%) ([2]; 90% RH, 25° C.): 9.13%
1st Sorp. (%) ([2]; 90% RH, 25° C.): 9.11%
2nd Desorp. (%) ([2]; 90% RH, 25° C.): 9.06%
2nd Sorp. (%) ([2]; 90% RH, 25° C.): 9.00%
1st Desorp. (%) ([2]; 95% RH, 25° C.): 9.21%
1st Sorp. (%) ([2]; 95% RH, 25° C.): 9.21%
2nd Desorp. (%) ([2]; 95% RH, 25° C.): 9.14%
2nd Sorp. (%) ([2]; 95% RH, 25° C.): 9.14%
Hygroscopicity ([2]; DVS at 25° C.): undergoes dehydration when relative humidity is below 40%
Salt screening result ([3]; ACN): Clear solution
Salt screening result ([3]; Acetone): Clear solution
Salt screening result ([3]; EtOH): Clear solution
solubility at 2 h [4]: 110 µg/mL (≈ 0.38 mM)
solubility at 24 h [4]: 140 µg/mL (≈ 0.484 mM)
Weight loss (%) at Temperature (° C.) [5]: 8.0 at %
Weight loss (%) at Temperature (° C.) ([5]; listed as free base (polymorph B)): about 8%
Weight loss (%) [6]: 8.0%
solubility at 2 h [7, 12]: > 2000 µg/mL
solubility at 24 h [7, 12]: > 2000 µg/mL
solubility at 2 h [7, 13]: 1540 µg/mL (≈ 5.32 mM)
solubility at 24 h [7, 13]: 1580 µg/mL (≈ 5.46 mM)
solubility at 2 h [7, 14]: > 2000 µg/mL
solubility at 24 h [7, 14]: > 2000 µg/mL
solubility at 2 h [7, 15]: > 2000 µg/mL
solubility at 24 h [7, 15]: > 2000 µg/mL
solubility at 2 h [7, 16]: > 2000 µg/mL
solubility at 24 h [7, 16]: > 2000 µg/mL
solubility at 2 h [7, 17]: > 2000 µg/mL
solubility at 24 h [7, 17]: > 2000 µg/mL
solubility at 2 h ([7]; Water, tested up to 2 mg/mL): 110 µg/mL (≈ 0.38 mM)
solubility at 24 h ([7]; Water, tested up to 2 mg/mL): 140 µg/mL (≈ 0.484 mM)
Water content (% w/w) ([8]; large scale batch): 8.0% w/w
Water content (% w/w) [8, 18]: about 8 % w/w
Water content (% w/w) ([8]; salt screening sample): 8% w/w
Crystallinity (Crystallinity by XRPD; large scale batch): High
Crystallinity (Crystallinity by XRPD; [18]): high crystallinity
Crystallinity (Crystallinity by XRPD; salt screening sample): High

COc1cc(C(F)(F)F)c(OC)cc1[C@@H]1CCCNC1.O=C(O)CCC(=O)O [Succinate salt Polymorph A (anhydrate), succinic acid salt of (S)-3-(2,5-dimethoxy-4-(trifluoromethyl)phenyl)piperidine]
Desorp. (%) ([2]; 0% RH, 25° C.): 0.00%
Sorp. (%) ([2]; 0% RH, 25° C.): 0.06%
Desorp. (%) ([2]; 10% RH, 25° C.): 0.01%
Sorp. (%) ([2]; 10% RH, 25° C.): 0.06%
Desorp. (%) ([2]; 20% RH, 25° C.): 0.01%
Sorp. (%) ([2]; 20% RH, 25° C.): 0.07%
Water absorbed from 40% RH to 95% RH ([2]; 25° C.): about 0.21%
Desorp. (%) ([2]; 30% RH, 25° C.): 0.02%
Sorp. (%) ([2]; 30% RH, 25° C.): 0.07%
Desorp. (%) ([2]; 40% RH, 25° C.): 0.02%
Sorp. (%) ([2]; 40% RH, 25° C.): 0.07%
Desorp. (%) ([2]; 50% RH, 25° C.): 0.02%
Sorp. (%) ([2]; 50% RH, 25° C.): 0.09%
Desorp. (%) ([2]; 60% RH, 25° C.): 0.03%
Sorp. (%) ([2]; 60% RH, 25° C.): 0.08%
Desorp. (%) ([2]; 70% RH, 25° C.): 0.10%
Sorp. (%) ([2]; 70% RH, 25° C.): 0.09%
Desorp. (%) ([2]; 80% RH, 25° C.): 0.11%
Sorp. (%) ([2]; 80% RH, 25° C.): 0.10%
Desorp. (%) ([2]; 90% RH, 25° C.): 0.16%
Sorp. (%) ([2]; 90% RH, 25° C.): 0.14%
Desorp. (%) ([2]; 95% RH, 25° C.): 0.29%
Sorp. (%) ([2]; 95% RH, 25° C.): 0.29%
XRPD after DVS test ([2]; DVS at 25° C.): No form changes
Hygroscopicity ([2]; DVS at 25° C.): non-hygroscopic
Hygroscopicity (water uptake % w/w) [9]: (~0.7%) % w/w
Polymorph obtained in salt screening ([3]; ACN): Polymorph A
Salt screening result ([3]; ACN): +
Polymorph obtained in salt screening ([3]; Acetone): Polymorph A
Salt screening result ([3]; Acetone): +
Polymorph obtained in salt screening ([3]; EtOH): Polymorph A
Salt screening result ([3]; EtOH): +
Change of polymorph form and degree of crystallinity [10]: No change in polymorph form and crystallinity was observed
Weight loss (%) at Temperature (° C.) [5]: 0.2 at %
Weight loss (%) at Temperature (° C.) ([5]; listed as succinate salt Polymorph A): about 0.2%
Weight loss (%) [6]: 2.1%
Change of polymorph form and degree of crystallinity [11]: No change in polymorph form and crystallinity was observed
Crystallinity (Crystallinity by XRPD; large scale batch): High
Crystallinity (Crystallinity by XRPD; large scale batch, listed as succinate salt Polymorph A): high crystallinity
